Legend:
corn = assay: Test C pre-/postemergence test; assay type: in vivo, Zea mays
In short: (§1)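 Compounds in a non-phytotoxic solvent with surfactant applied preemergence to seeded pots and, at the same time, postemergence to plants 2–18 cm tall (1- to 4-leaf stage). Paddy tests: pots flooded to 3 cm, compound applied into the water, depth held throughout.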

duck salad = assay: Test C flooded paddy test; assay type: in vivo, Heteranthera limosa; conditions: Flood
In short: (§2)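 Test compounds are applied straight into paddy water held 3 cm above the soil surface, with that flood maintained for the whole test. After 13 to 15 days in the greenhouse, each species is scored visually relative to controls.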

rice = assay: Test C flooded paddy test; assay type: in vivo, Oryza sativa; conditions: Flood
In short: as §2

woolly cupgrass = assay: Test C pre-/postemergence test; assay type: in vivo, Eriochloa villosa
In short: as §1

morningglory = assay: Test C pre-/postemergence test; assay type: in vivo, Ipomoea coccinea
In short: as §1

redroot pigweed = assay: Test A pre-/postemergence greenhouse test; assay type: in vivo, Amaranthus retroflexus; conditions: for Pigweed plant response rating: 0 to 100 scale
In short: (§3)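 Test compounds in non-phytotoxic solvent with surfactant were applied as a preemergence soil spray to seeded loam/sand pots and, concurrently, postemergence to plants at 2–10 cm, one- to two-leaf stage. About ten days in greenhouse, then injury visually rated against untreated controls.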

eastern black nightshade = assay: Test C pre-/postemergence test; assay type: in vivo, Solanum ptycanthum
In short: as §1

wheat [1] = assay: Test C pre-/postemergence test; assay type: in vivo, Triticum aestivum; conditions: for Wheat plant response rating: preemergence, scale 0 (no effect) to 100 (complete control)
In short: as §1

velvetleaf [2] = assay: Test C pre-/postemergence test; assay type: in vivo, Abutilon theophrasti; conditions: for Velvetleaf plant response rating: preemergence, scale 0 (no effect) to 100 (complete control)
In short: as §1

johnsongrass = assay: Test C pre-/postemergence test; assay type: in vivo, Sorghum halepense
In short: as §1

wild oat = assay: Test C pre-/postemergence test; assay type: in vivo, Avena fatua
In short: as §1

catchweed bedstraw = assay: Test C pre-/postemergence test; assay type: in vivo, Galium aparine
In short: as §1

wheat [3] = assay: Test A pre-/postemergence greenhouse test; assay type: in vivo, Triticum aestivum; conditions: for Wheat plant response rating: 0 to 100 scale
In short: as §3

downy brome = assay: Test C pre-/postemergence test; assay type: in vivo, Bromus tectorum
In short: as §1

yellow nutsedge = assay: Test C pre-/postemergence test; assay type: in vivo, Cyperus esculentus
In short: as §1

velvetleaf [4] = assay: Test A pre-/postemergence greenhouse test; assay type: in vivo, Abutilon theophrasti; conditions: for Velvetleaf plant response rating: 0 to 100 scale
In short: as §3

giant foxtail = assay: Test C pre-/postemergence test; assay type: in vivo, Setaria faberii
In short: as §1

[5] = 31 g ai/ha, Preemergence, scale 0 to 100
[6] = 62 g ai/ha, preemergence, scale 0 (no effect) to 100 (complete control)
[7] = preemergence, 125 g ai/ha, scale 0 (no effect) to 100 (complete control)
[8] = 31 g ai/ha, scale 0 to 100 (0 no effect, 100 complete control)
[9] = 62 g ai/ha, scale 0 to 100, 0 no effect, 100 complete control, 13 to 15 days
[10] = 125 g ai/ha, scale 0 to 100, 0 no effect, 100 complete control, 13 to 15 days
[11] = 250 g ai/ha, scale 0 to 100 (0 no effect, 100 complete control)
[12] = Postemergence, 125 g ai/ha, 0 is no effect, 100 is complete control
[13] = Postemergence, 500 g ai/ha, 0 is no effect, 100 is complete control
[14] = Preemergence, 125 g ai/ha, 0 no effect, 100 complete control
[15] = Preemergence, 500 g ai/ha, 0 to 100 scale where 0 is no effect and 100 is complete control

## Cn1nc(C(F)(F)F)c(C[S+]([O-])c2cccc[n+]2[O-])c1Cl (centres unmarked) [Compound 8]
corn; [5]
  Corn plant response rating: 60
corn; [6]
  Corn plant response rating: 80
corn; Preemergence, 250 g ai/ha
  Plant response rating (0 to 100), Corn: 98
corn; [7]
  Corn plant response rating: 95
Duck salad; [8]
  Plant response rating, Ducksalad: 0
Duck salad; [9]
  Plant response rating, Ducksalad: 0
Duck salad; [10]
  Plant response rating, Ducksalad: 50
Duck salad; [11]
  Plant response rating, Ducksalad: 90
rice; [8]
  Plant response rating, Rice: 0
rice; [9]
  Plant response rating, Rice: 0
rice; [10]
  Plant response rating, Rice: 0
rice; [11]
  Plant response rating, Rice: 20
Woolly cupgrass; [5]
  Cupgrass, Woolly plant response rating: 70
Woolly cupgrass; [6]
  Cupgrass, Woolly plant response rating: 98
Woolly cupgrass; Preemergence, 250 g ai/ha
  Plant response rating (0 to 100), Cupgrass, Woolly: 100
Woolly cupgrass; [7]
  Cupgrass, Woolly plant response rating: 100
morningglory; [5]
  Morningglory plant response rating: 5
morningglory; [6]
  Morningglory plant response rating: 90
morningglory; Preemergence, 250 g ai/ha
  Plant response rating (0 to 100), Morningglory: 100
morningglory; [7]
  Morningglory plant response rating: 100
Redroot pigweed; [12]
  Pigweed plant response rating: 20
Redroot pigweed; [13]
  Pigweed plant response rating: 60
Redroot pigweed; [14]
  Pigweed plant response rating: 100
Redroot pigweed; [15]
  Plant response rating, Pigweed: 100
Eastern black nightshade; [5]
  Nightshade plant response rating: 80
Eastern black nightshade; [6]
  Nightshade plant response rating: 85
Eastern black nightshade; Preemergence, 250 g ai/ha
  Plant response rating (0 to 100), Nightshade: 100
Eastern black nightshade; [7]
  Nightshade plant response rating: 100
Wheat [1]; 62 g ai/ha
  Wheat plant response rating: 30
Wheat [1]; Preemergence, 250 g ai/ha
  Plant response rating (0 to 100), Wheat: 80
Wheat [1]; 125 g ai/ha
  Wheat plant response rating: 50
Velvetleaf [2]; 62 g ai/ha
  Velvetleaf plant response rating: 45
Velvetleaf [2]; Preemergence, 250 g ai/ha
  Plant response rating (0 to 100), Velvetleaf: 100
Velvetleaf [2]; 125 g ai/ha
  Velvetleaf plant response rating: 98
johnsongrass; [5]
  Johnsongrass plant response rating: 80
johnsongrass; [6]
  Johnsongrass plant response rating: 85
johnsongrass; Preemergence, 250 g ai/ha
  Plant response rating (0 to 100), Johnsongrass: 100
johnsongrass; [7]
  Johnsongrass plant response rating: 85
Wild oat; [5]
  Oat, Wild plant response rating: 0
Wild oat; [6]
  Oat, Wild plant response rating: 20
Wild oat; Preemergence, 250 g ai/ha
  Plant response rating (0 to 100), Oat, Wild: 60
Wild oat; [7]
  Oat, Wild plant response rating: 40
Catchweed bedstraw; [5]
  Galium plant response rating: 0
Catchweed bedstraw; [6]
  Galium plant response rating: 100
Catchweed bedstraw; [7]
  Galium plant response rating: 100
Wheat [3]; [12]
  Wheat plant response rating: 30
Wheat [3]; [13]
  Wheat plant response rating: 60
Wheat [3]; [14]
  Wheat plant response rating: 60
Wheat [3]; [15]
  Plant response rating, Wheat: 70
Downy brome; [5]
  Bromegrass, Downy plant response rating: 0
Downy brome; [6]
  Bromegrass, Downy plant response rating: 0
Downy brome; Preemergence, 250 g ai/ha
  Plant response rating (0 to 100), Bromegrass, Downy: 85
Downy brome; [7]
  Bromegrass, Downy plant response rating: 80
Yellow nutsedge; [5]
  Nutsedge, Yellow plant response rating: 60
Yellow nutsedge; [6]
  Nutsedge, Yellow plant response rating: 80
Yellow nutsedge; Preemergence, 250 g ai/ha
  Plant response rating (0 to 100), Nutsedge, Yellow: 100
Yellow nutsedge; [7]
  Nutsedge, Yellow plant response rating: 100
Velvetleaf [4]; [12]
  Velvetleaf plant response rating: 40
Velvetleaf [4]; [13]
  Velvetleaf plant response rating: 70
Velvetleaf [4]; [14]
  Velvetleaf plant response rating: 70
Velvetleaf [4]; [15]
  Plant response rating, Velvetleaf: 80
Giant foxtail; [5]
  Foxtail, Giant plant response rating: 85
Giant foxtail; [6]
  Foxtail, Giant plant response rating: 98
Giant foxtail; Preemergence, 250 g ai/ha
  Plant response rating (0 to 100), Foxtail, Giant: 100
Giant foxtail; [7]
  Foxtail, Giant plant response rating: 100
